# Measured values from patent publication US12479866B2, “Boron-containing rho kinase inhibitors” (Percipiad, Inc., priority 2019, dated 2025).
# Where “and” joins values, the source holds several entries; their conditions need not be identical. Identical values can stand only once.
# Key:
# [1] = target: AMPKA1/B1/G2 (Homo sapiens (Human), UniProt Q13131); assay: Kinase Selectivity Profiling General Panel (ADP-Glo); format: biochemical; conditions: 1 μM compound, read-out: Percent enzyme activity inhibition, AMPKA1/B1/G2
# Protocol: (§1) After this incubation, 5 μl of ADP-Glo™ reagent was added to 5 μl reaction and incubated for 40 minutes. Then, 10 μl of Kinase Detection Reagent added to all assay wells in the assay plate and incubated at room temperature for 30 minutes. […]
# [2] = target: Aurora A (Homo sapiens (Human), UniProt O14965); assay: as above; format: biochemical; conditions: 1 μM compound, read-out: Percent enzyme activity inhibition, Aurora A
# Protocol: as §1
# [3] = target: CAMK4 (Homo sapiens (Human), UniProt Q16566); assay: as above; format: biochemical; conditions: 1 μM compound, read-out: Percent enzyme activity inhibition, CAMK4
# Protocol: as §1
# [4] = target: CK1g1 (Homo sapiens (Human), UniProt Q9HCP0); assay: as above; format: biochemical; conditions: 1 μM compound, read-out: Percent enzyme activity inhibition, CK1g1
# Protocol: as §1
# [5] = target: CK2a1 (Homo sapiens (Human), UniProt P68400); assay: as above; format: biochemical; conditions: 1 μM compound, read-out: Percent enzyme activity inhibition, CK2a1
# Protocol: as §1
# [6] = target: DAPK1 (Homo sapiens (Human), UniProt P53355); assay: as above; format: biochemical; conditions: 1 μM compound, read-out: Percent enzyme activity inhibition, DAPK1
# Protocol: as §1
# [7] = target: IKKb (Homo sapiens (Human), UniProt O14920); assay: as above; format: biochemical; conditions: 1 μM compound, read-out: Percent enzyme activity inhibition, IKKb
# Protocol: as §1
# [8] = target: IRAK4 (Homo sapiens (Human), UniProt Q9NWZ3); assay: as above; format: biochemical; conditions: 1 μM compound, read-out: Percent enzyme activity inhibition, IRAK4
# Protocol: as §1
# [9] = target: LCK (Homo sapiens (Human), UniProt P06239); assay: as above; format: biochemical; conditions: 1 μM compound, read-out: Percent enzyme activity inhibition, LCK
# Protocol: as §1
# [10] = target: MINK1 (Homo sapiens (Human), UniProt Q8N4C8); assay: as above; format: biochemical; conditions: 1 μM compound, read-out: Percent enzyme activity inhibition, MINK1
# Protocol: as §1
# [11] = target: PAK1/CDC42 (Homo sapiens (Human), UniProt Q13153); assay: as above; format: biochemical; conditions: 1 μM compound, read-out: Percent enzyme activity inhibition, PAK1/CDC42
# Protocol: as §1
# [12] = target: p38a (Homo sapiens (Human), UniProt Q16539); assay: as above; format: biochemical; conditions: 1 μM compound, read-out: Percent enzyme activity inhibition, p38a
# Protocol: as §1
# [13] = target: PKA-NanoLuc fusion protein (Homo sapiens (Human), UniProt P17612); assay: PKA-NanoBRET Target Engagement Intracellular Kinase Assay in HEK293 cells; format: cell-based; conditions: live HEK293 cells, 2 hours; read-out: Estimated IC50, inhibition of NanoBRET tracer binding to PKA
# Protocol: NanoBRET™ TE assay is based on the NanoBRET™ System, an energy transfer technique designed to measure molecular proximity in living cells. The NanoBRET™ TE assay measures the apparent affinity of test compounds by competitive displacement of the NanoBRET™ tracer, reversibly bound to a NanoLuc® luciferase-kinase fusions in cells. Using the NanoBRET™ TE Kinase Assay, a fixed concentration of tracer is added to cells expressing the desired NanoLuc® kinase fusion to generate a BRET signal. […] Centrifuged culture, resuspended cells in fresh culture media, and dispense 85 ul in to wells of 96-well plate. • 3. […] Added 10 μl of 10× serially diluted inhibitor compound per well containing cells with IX NanoBRET Tracer Reagent. Thoroughly mixed plate on an orbital shaker for 15 seconds at 700 rpm. • 5. […] Equilibrated plate to room temperature for ˜15 minutes. • 6. […] Measured donor emission wavelength (450 nm) and acceptor emission wavelength (610 nm) using the GloMax® Discover System (Promega). To generate raw BRET ratio values, divided the acceptor emission value (610 nm) by the donor emission value (450 nm) for each sample.
# [14] = Stability in liver microsomes (LC-MS/MS); format: in vitro ADME; conditions: Human liver microsomes; for % Remaining of Initial (n = 1): 1 μM
# Protocol: Stability in liver microsomes. Experiment was conducted by Absorption Systems. Mixed-gender human liver microsomes (Lot #1210347) were purchased from XenoTech. The reaction mixture, minus NADPH, was prepared (Liver Microsomes 0.5 mg/mL, NADPH (cofactor) 1 mM, potassium phosphate, pH 7.4, 100 mM, MgCl2, 5 mM). The test article was added into the reaction mixture at a final concentration of 1 μM. The control compound, testosterone, was run simultaneously with the test article in a separate reaction. The reaction mixture (without cofactor) was equilibrated in a shaking water bath at 37° C. for 3 minutes. The reaction was initiated by the addition of the cofactor, and the mixture was incubated in a shaking water bath at 37° C. Aliquots (100 μL) were withdrawn at 0, 10, 20, 30, and 60 minutes. Test article and testosterone samples were immediately combined with 400 μL of ice-cold 50/50 acetonitrile (ACN)/H2O containing 0.1% formic acid and internal standard to terminate the reaction. The samples were then mixed and centrifuged to precipitate proteins. […] The peak area response ratio (PARR) to internal standard was compared to the PARR at time 0 to determine the percent remaining at each time point. Half-lives and clearance were calculated using GraphPad software, fitting to a single-phase exponential decay equation.
# [15] = target: ROCK2 (Homo sapiens (Human), UniProt O75116); assay: Stability in varied buffers and temperatures, measured by ROCK2 inhibition; format: physicochemical
# [16] = water, thermodynamic from solid
# ROCK2, sequence (O75116 whole entry): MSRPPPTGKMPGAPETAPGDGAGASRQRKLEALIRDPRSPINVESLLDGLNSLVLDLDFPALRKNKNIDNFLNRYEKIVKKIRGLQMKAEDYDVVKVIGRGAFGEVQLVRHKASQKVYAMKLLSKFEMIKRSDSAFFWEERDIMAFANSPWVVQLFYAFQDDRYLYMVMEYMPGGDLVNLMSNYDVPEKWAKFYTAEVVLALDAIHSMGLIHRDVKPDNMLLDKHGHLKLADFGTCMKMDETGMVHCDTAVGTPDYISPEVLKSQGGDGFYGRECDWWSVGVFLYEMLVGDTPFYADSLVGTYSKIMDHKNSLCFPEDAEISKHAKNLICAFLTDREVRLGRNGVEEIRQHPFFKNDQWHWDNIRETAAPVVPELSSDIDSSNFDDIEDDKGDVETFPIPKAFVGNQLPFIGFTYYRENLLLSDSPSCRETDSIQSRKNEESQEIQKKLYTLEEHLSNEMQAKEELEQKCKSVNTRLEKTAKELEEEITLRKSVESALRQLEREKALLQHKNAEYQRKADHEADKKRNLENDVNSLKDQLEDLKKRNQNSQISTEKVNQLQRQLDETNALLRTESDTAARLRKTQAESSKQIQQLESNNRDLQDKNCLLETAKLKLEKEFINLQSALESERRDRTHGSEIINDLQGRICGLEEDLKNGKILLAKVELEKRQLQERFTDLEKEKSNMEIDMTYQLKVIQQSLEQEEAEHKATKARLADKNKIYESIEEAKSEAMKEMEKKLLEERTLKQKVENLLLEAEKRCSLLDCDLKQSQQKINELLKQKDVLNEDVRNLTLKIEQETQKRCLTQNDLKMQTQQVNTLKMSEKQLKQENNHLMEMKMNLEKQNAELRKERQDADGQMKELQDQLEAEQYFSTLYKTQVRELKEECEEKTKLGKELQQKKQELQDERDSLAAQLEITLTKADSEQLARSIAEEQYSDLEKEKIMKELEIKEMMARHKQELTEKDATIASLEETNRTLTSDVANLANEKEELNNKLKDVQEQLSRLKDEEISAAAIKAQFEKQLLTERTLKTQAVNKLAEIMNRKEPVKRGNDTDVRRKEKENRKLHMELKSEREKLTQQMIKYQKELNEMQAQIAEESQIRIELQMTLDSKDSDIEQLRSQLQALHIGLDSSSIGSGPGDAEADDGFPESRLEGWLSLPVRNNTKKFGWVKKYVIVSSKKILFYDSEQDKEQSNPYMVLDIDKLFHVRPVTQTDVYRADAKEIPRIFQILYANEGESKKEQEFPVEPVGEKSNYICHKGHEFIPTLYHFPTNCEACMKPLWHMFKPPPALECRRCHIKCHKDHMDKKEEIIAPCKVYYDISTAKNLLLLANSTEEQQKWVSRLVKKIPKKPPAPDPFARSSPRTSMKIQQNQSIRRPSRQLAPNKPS
# AMPKA1/B1/G2, sequence (Q13131 whole entry): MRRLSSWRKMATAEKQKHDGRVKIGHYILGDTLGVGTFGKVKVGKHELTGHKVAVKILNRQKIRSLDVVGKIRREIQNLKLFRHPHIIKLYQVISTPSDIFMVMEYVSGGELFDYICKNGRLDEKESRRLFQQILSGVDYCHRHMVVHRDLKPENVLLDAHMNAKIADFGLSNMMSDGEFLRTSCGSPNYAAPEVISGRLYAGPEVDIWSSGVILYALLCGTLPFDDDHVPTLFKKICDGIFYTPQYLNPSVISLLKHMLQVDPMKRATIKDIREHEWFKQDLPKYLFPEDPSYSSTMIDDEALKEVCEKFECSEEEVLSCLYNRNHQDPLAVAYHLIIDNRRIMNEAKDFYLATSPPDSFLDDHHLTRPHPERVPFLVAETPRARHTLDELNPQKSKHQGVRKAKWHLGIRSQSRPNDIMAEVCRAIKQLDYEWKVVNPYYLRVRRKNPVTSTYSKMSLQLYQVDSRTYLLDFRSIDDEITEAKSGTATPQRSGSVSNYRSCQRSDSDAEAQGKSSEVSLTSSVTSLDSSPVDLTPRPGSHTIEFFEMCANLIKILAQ
# AMPKA1/B1/G2, sequence (Q9Y478 whole entry partner): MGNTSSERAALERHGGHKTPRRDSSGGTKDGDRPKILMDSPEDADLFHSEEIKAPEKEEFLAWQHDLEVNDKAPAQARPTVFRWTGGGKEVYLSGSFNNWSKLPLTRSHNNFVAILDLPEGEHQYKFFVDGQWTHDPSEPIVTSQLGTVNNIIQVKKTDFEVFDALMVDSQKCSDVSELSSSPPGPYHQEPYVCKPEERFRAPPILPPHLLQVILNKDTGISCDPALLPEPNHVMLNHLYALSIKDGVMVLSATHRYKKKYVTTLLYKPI
# AMPKA1/B1/G2, sequence (Q9UGJ0 whole entry partner): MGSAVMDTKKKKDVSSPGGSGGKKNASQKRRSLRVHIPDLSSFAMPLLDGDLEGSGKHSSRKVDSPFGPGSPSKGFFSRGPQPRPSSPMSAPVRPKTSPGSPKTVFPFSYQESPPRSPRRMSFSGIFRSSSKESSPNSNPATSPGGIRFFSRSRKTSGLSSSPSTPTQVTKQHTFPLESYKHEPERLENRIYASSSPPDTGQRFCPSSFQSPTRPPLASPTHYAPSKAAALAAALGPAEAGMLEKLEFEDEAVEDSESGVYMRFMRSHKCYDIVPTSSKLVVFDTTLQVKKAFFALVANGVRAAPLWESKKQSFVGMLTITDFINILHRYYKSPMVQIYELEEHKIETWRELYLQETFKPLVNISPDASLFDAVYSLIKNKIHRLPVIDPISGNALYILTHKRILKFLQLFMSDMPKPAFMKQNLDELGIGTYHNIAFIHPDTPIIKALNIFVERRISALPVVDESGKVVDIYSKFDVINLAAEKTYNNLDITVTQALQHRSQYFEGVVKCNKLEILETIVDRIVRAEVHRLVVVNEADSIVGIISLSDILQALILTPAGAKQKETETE
# PAK1/CDC42, sequence (Q13153 whole entry): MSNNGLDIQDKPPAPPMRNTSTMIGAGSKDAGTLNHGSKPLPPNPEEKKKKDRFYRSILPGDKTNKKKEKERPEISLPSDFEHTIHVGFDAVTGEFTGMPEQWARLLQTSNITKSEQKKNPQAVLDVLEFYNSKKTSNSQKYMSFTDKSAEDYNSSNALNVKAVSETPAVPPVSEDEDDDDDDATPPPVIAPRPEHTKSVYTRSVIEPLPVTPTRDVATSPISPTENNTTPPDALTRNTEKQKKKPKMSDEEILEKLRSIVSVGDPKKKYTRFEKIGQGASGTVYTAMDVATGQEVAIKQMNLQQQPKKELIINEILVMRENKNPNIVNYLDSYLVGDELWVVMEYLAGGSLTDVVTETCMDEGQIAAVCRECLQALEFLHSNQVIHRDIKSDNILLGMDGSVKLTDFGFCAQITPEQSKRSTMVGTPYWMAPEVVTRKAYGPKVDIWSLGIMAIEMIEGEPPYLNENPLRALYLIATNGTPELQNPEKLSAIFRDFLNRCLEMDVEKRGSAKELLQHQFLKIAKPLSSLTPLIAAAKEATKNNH
# IKKb, sequence (O14920 whole entry): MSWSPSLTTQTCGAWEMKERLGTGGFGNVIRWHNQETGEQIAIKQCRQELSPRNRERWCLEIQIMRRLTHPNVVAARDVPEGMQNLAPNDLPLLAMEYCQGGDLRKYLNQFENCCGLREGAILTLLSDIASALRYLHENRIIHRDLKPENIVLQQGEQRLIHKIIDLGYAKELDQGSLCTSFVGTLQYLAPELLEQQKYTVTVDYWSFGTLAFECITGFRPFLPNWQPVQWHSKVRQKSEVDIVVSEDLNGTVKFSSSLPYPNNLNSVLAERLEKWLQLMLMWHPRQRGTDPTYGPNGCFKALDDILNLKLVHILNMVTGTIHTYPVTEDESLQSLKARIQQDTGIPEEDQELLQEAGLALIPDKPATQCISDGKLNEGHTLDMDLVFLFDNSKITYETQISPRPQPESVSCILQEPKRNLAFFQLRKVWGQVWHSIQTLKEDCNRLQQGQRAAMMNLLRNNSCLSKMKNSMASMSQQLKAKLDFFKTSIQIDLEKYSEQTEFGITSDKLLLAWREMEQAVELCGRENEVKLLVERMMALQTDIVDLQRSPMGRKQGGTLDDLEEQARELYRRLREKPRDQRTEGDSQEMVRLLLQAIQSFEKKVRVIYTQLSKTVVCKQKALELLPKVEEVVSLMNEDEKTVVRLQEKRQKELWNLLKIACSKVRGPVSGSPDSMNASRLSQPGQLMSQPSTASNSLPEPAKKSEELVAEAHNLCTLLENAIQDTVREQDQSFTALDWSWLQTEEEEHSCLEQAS
# CK2a1, sequence (P68400 whole entry): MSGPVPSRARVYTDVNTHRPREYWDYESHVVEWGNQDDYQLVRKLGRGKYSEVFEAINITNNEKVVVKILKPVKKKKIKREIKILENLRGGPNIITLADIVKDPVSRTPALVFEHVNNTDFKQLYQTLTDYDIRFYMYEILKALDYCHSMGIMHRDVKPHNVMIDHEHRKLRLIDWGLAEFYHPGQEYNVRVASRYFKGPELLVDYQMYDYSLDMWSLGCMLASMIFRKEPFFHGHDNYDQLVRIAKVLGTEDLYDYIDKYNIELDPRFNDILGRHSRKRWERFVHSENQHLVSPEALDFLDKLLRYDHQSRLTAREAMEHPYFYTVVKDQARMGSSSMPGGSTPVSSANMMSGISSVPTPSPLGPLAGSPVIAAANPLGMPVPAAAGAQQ
# CAMK4, sequence (Q16566 whole entry): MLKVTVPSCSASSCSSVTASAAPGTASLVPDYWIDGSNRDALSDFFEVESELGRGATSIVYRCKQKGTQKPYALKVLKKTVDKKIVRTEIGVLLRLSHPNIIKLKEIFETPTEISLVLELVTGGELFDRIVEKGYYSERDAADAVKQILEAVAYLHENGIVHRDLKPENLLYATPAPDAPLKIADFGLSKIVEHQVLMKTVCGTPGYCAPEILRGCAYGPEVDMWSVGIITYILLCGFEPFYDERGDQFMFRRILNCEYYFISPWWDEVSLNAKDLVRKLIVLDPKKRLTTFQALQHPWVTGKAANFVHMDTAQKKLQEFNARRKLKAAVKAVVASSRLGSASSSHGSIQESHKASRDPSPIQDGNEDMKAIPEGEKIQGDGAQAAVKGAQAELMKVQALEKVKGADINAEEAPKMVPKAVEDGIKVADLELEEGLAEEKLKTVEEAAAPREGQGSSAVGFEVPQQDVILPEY
compound,measurement,setting,value
Cl.Cl.NCC(C(=O)Nc1ccc2cnccc2c1)c1ccc(B(O)O)cc1 (stereo not shown) [Compound 10•2HCl],inhibition at 1 µM,[1],58%
same,inhibition at 1 µM,[2],21%
same,inhibition at 1 µM,[3],7%
same,inhibition at 1 µM,[4],0%
same,inhibition at 1 µM,[5],3%
same,inhibition at 1 µM,[6],20%
same,inhibition at 1 µM,[7],0%
same,inhibition at 1 µM,[8],0%
same,inhibition at 1 µM,[9],0%
same,inhibition at 1 µM,[10],3%
same,inhibition at 1 µM,[11],0%
same,inhibition at 1 µM,[12],0%
same,IC50,[13],1420 nM
same,% Remaining of Initial (n = 1),[14]; 0 min,100%
same,% Remaining of Initial (n = 1),[14]; 10 min,98.0%
same,% Remaining of Initial (n = 1),[14]; 20 min,91.5%
same,% Remaining of Initial (n = 1),[14]; 30 min,89.6%
same,% Remaining of Initial (n = 1),[14]; 60 min,80.8%
same,half-life at 1 μM,"[14]; both sexes, pH 7.4",> 1 h
same,microsomal CLint at 1 μM,"[14]; both sexes, pH 7.4",< 23.1 µL/min/mg
same,% ROCK2 inhibition at 20 nM,"[15]; 25 mM Borate pH 7 (0.5 mg/ml), 15 days at 23° C.",36%
same,% ROCK2 inhibition at 20 nM,"[15]; 25 mM Borate, pH 7 (0.5 mg/ml), 15 days at −20° C.",34%
same,% ROCK2 inhibition at 20 nM,"[15]; 25 mM Borate, pH 7, 150 mM NaCl (0.5 mg/ml), 15 days at 23° C.",32%
same,Stability in solution,"[15]; pH 5 and 7 buffers, room temperature",stable in pH 5 and 7 buffers at room temperature for 15 days
same,solubility,[16],> 100000 µg/mL and > 234000 µM
